System: AR patients
Assay: Specific cases: earlier treatment reported in the patient history
Assay type: in vivo, human

**Q.** For Omalizumab, which “nasal symptoms after earlier treatment (patient history)” value (Case 4, injected, before GCV) is on record?
**A.** Its value is “did not ameliorate”.

**Q.** What about the “nasal symptoms after earlier treatment (patient history)” value (Case 5, before GCV) of the same substance?
**A.** The value was “without any improvement”.
